Reference: PMC3150631 (Nature, 2011)

Target: T1, UCP2 (mouse mitochondrial uncoupling protein 2) (Mus musculus, UniProt P70406)
T1 sequence (P70406 14-309): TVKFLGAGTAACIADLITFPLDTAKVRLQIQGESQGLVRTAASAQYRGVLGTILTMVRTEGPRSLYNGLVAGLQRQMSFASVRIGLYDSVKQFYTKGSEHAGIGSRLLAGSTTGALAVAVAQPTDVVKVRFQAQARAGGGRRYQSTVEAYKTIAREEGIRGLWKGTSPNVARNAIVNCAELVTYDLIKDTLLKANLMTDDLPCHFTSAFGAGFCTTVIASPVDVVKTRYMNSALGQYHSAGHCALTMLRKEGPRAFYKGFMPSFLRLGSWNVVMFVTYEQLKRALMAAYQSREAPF
Test: proton translocation in liposomes
Assay type: biochemical
Details: fatty-acid activated; inhibitor

Compound: Nc1nc2c(ncn2[C@@H]2O[C@H](COP(=O)(O)OP(=O)(O)O)[C@@H](O)[C@H]2O)c(=O)[nH]1 [GDP]
- proton translocation in liposomes: it showed fatty-acid activated and GDP-inhibited proton translocation activity
